Source: ChEMBL document CHEMBL1201862, “PubChem BioAssay data set” (2004)
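Grown in 96-well plates, cells were treated for 48 hours with each compound at five concentrations. Insufficient inhibition: endpoint recorded as highest concentration tested. GI50 marks 50% less growth.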 Calls of active or inactive are those of the source. Rule as the data show it: active = GI50 up to about 1.1 µM and inactive = higher.

How the values were obtained:
Experiment in all cases: NCI-60 cell line screen, 48 h
[1] = test system: A549
[2] = test system: BT-549
[3] = test system: Hs-578T
[4] = test system: LOX IMVI
[5] = test system: M14
[6] = test system: MCF7
[7] = test system: MOLT-4
[8] = test system: Malme-3M
[9] = test system: RPMI-8226
[10] = test system: RXF 393
[11] = test system: SF-268
[12] = test system: SK-MEL-2
[13] = test system: SK-MEL-5
[14] = test system: SK-OV-3
[15] = test system: SNB-19
[16] = test system: TK-10
[17] = test system: UACC-62
[18] = test system: EKVX
[19] = test system: OVCAR-8
[20] = test system: SF-295

| Structure (SMILES) | GI50 [1] | GI50 [2] | GI50 [3] | GI50 [4] | GI50 [5] | GI50 [6] | GI50 [7] | GI50 [8] | GI50 [9] | GI50 [10] | GI50 [11] | GI50 [12] | GI50 [13] | GI50 [14] | GI50 [15] | GI50 [16] | GI50 [17] | GI50 [18] | GI50 [19] | GI50 [20] |
| --- | --- | --- | --- | --- | --- | --- | --- | --- | --- | --- | --- | --- | --- | --- | --- | --- | --- | --- | --- | --- |
| CC1CC[C@@]2(OC1)OC1C[C@H]3[C@@H]4C/C(=N\N(C)C)[C@@]5(O)CC(O)CC[C@]5(C)[C@H]4CC[C@]3(C)C1[C@@H]2C (stereo partly drawn) | 48.6 µM (inactive) | 51.2 µM (inactive) | 33.3 µM (inactive) | 42.5 µM (inactive) | > 100 µM (inactive) | 39.1 µM (inactive) | 34.1 µM (inactive) | 29.7 µM (inactive) | 41.6 µM (inactive) | 22.9 µM (inactive) | 58.7 µM (inactive) | 36.7 µM (inactive) | 42 µM (inactive) | 76.6 µM (inactive) | 38.7 µM (inactive) | 48.9 µM (inactive) | 37.5 µM (inactive) | – | – | – |
| O=C(N/N=C/c1ccc([N+](=O)[O-])cc1)c1cccc2nc3ccccc3nc12 | 1.24 µM (inactive) | > 55.8 µM (inactive) | 9.75 µM (inactive) | > 85.5 µM (inactive) | > 100 µM (inactive) | > 100 µM (inactive) | > 36.8 µM (inactive) | > 100 µM (inactive) | > 100 µM (inactive) | 33.3 µM (inactive) | > 58.9 µM (inactive) | > 100 µM (inactive) | 2.07 µM (inactive) | > 56.9 µM (inactive) | > 55.8 µM (inactive) | > 38 µM (inactive) | > 100 µM (inactive) | > 100 µM (inactive) | > 90.8 µM (inactive) | 78.2 µM (inactive) |
| CC(C)(C)OC(=O)N(O)CCCn1cnc2c(N)ncnc21 | > 100 µM (inactive) | > 100 µM (inactive) | > 100 µM (inactive) | > 100 µM (inactive) | > 100 µM (inactive) | > 100 µM (inactive) | > 100 µM (inactive) | > 100 µM (inactive) | > 100 µM (inactive) | > 100 µM (inactive) | > 100 µM (inactive) | > 100 µM (inactive) | > 100 µM (inactive) | > 100 µM (inactive) | > 100 µM (inactive) | > 100 µM (inactive) | > 100 µM (inactive) | > 100 µM (inactive) | > 100 µM (inactive) | > 100 µM (inactive) |
| Cc1cc(O)c2c(c1)CC(O)C1=C2C(=O)c2c(O)ccc(OC3CC(O)C(OC4CC(OC5CCC(O)C(C)O5)C(O)C(C)O4)C(C)O3)c2C1=O (stereo not drawn) | 2.33 µM (inactive) | 1.86 µM (inactive) | 2.62 µM (inactive) | 1.33 µM (inactive) | 1.5 µM (inactive) | 1.39 µM (inactive) | 0.305 µM (active) | 0.789 µM (active) | 0.53 µM (active) | 1.46 µM (inactive) | 1.74 µM (inactive) | 1.58 µM (inactive) | 1.43 µM (inactive) | 2.33 µM (inactive) | 1.6 µM (inactive) | 2.17 µM (inactive) | 1.68 µM (inactive) | 1.89 µM (inactive) | 1.65 µM (inactive) | 2.34 µM (inactive) |
| CCN(CC)CCNC(=O)c1cn2c(ccc3sc4ccccc4c(=O)c32)n1 | 4.36 µM (inactive) | 13.8 µM (inactive) | 15.3 µM (inactive) | 9.18 µM (inactive) | 15.1 µM (inactive) | 5.87 µM (inactive) | 0.502 µM (active) | 11.6 µM (inactive) | 5.62 µM (inactive) | 8.22 µM (inactive) | 6.93 µM (inactive) | 21 µM (inactive) | 7.26 µM (inactive) | 12.1 µM (inactive) | 11.5 µM (inactive) | 14.4 µM (inactive) | 15.1 µM (inactive) | 14.6 µM (inactive) | 12.3 µM (inactive) | 10.5 µM (inactive) |
| Clc1cc(OC2C3CC4CC(C3)CC2C4)nc(Cl)n1 (stereo not drawn) | 29.6 µM (inactive) | 19.8 µM (inactive) | 18.9 µM (inactive) | 3.86 µM (inactive) | 16.2 µM (inactive) | 18.3 µM (inactive) | 16.9 µM (inactive) | 14.9 µM (inactive) | 21 µM (inactive) | 12.8 µM (inactive) | 19.2 µM (inactive) | 12 µM (inactive) | 17.9 µM (inactive) | 67.5 µM (inactive) | 36.4 µM (inactive) | 30.7 µM (inactive) | 12.2 µM (inactive) | 7.29 µM (inactive) | 26.1 µM (inactive) | 18 µM (inactive) |
| C=C1C(=O)OC2CC1C(OC(=O)/C=C/c1ccccc1)C/C(C)=C/CC/C(C)=C/CCC2(C)O (stereo not drawn) | 1.71 µM (inactive) | 1.05 µM (active) | 2.19 µM (inactive) | 0.828 µM (active) | 1.64 µM (inactive) | 0.714 µM (active) | 0.409 µM (active) | 2 µM (inactive) | 0.433 µM (active) | 1.34 µM (inactive) | 1.68 µM (inactive) | 1.48 µM (inactive) | 1.85 µM (inactive) | 2.19 µM (inactive) | 1.89 µM (inactive) | 1.65 µM (inactive) | 1.95 µM (inactive) | 1.81 µM (inactive) | 1.75 µM (inactive) | 1.56 µM (inactive) |
| CCOC(=O)/C=C1/Nc2cc(F)c(F)cc2NC1=O | > 100 µM (inactive) | > 100 µM (inactive) | > 100 µM (inactive) | > 100 µM (inactive) | > 100 µM (inactive) | > 100 µM (inactive) | > 100 µM (inactive) | > 100 µM (inactive) | > 100 µM (inactive) | > 100 µM (inactive) | > 100 µM (inactive) | > 100 µM (inactive) | > 100 µM (inactive) | > 100 µM (inactive) | > 100 µM (inactive) | > 100 µM (inactive) | > 100 µM (inactive) | > 100 µM (inactive) | > 100 µM (inactive) | > 100 µM (inactive) |
| O=C(NN=C1NCCCN1)c1ccco1 | > 100 µM (inactive) | > 100 µM (inactive) | > 100 µM (inactive) | > 100 µM (inactive) | > 100 µM (inactive) | > 100 µM (inactive) | > 100 µM (inactive) | > 100 µM (inactive) | > 100 µM (inactive) | > 100 µM (inactive) | > 100 µM (inactive) | > 100 µM (inactive) | > 100 µM (inactive) | > 100 µM (inactive) | > 100 µM (inactive) | > 100 µM (inactive) | > 100 µM (inactive) | > 100 µM (inactive) | > 100 µM (inactive) | > 100 µM (inactive) |
| COc1ccc(OC)c([N+](=O)[O-])c1-c1nc2sccn2c1/C=N/N=C(N)N | > 100 µM (inactive) | 53.2 µM (inactive) | 26.7 µM (inactive) | 36.9 µM (inactive) | > 100 µM (inactive) | 21.5 µM (inactive) | 26.9 µM (inactive) | 35.2 µM (inactive) | 33.5 µM (inactive) | > 100 µM (inactive) | 44.6 µM (inactive) | 33.3 µM (inactive) | 28.8 µM (inactive) | 61.7 µM (inactive) | > 100 µM (inactive) | 51.4 µM (inactive) | 91.8 µM (inactive) | > 100 µM (inactive) | > 100 µM (inactive) | > 100 µM (inactive) |
| Cc1cc(S(=O)(=O)Nc2nc(N)n(-c3ccccn3)n2)c(S)cc1Cl | > 100 µM (inactive) | > 100 µM (inactive) | 75 µM (inactive) | > 100 µM (inactive) | > 100 µM (inactive) | > 100 µM (inactive) | > 100 µM (inactive) | > 100 µM (inactive) | > 100 µM (inactive) | > 100 µM (inactive) | > 100 µM (inactive) | > 100 µM (inactive) | > 100 µM (inactive) | > 100 µM (inactive) | > 100 µM (inactive) | > 100 µM (inactive) | > 100 µM (inactive) | > 100 µM (inactive) | > 100 µM (inactive) | – |
| CN(C)c1ccc(/C=C2\N=C(NN)NC2=O)cc1 | 61.8 µM (inactive) | > 100 µM (inactive) | > 100 µM (inactive) | 35.3 µM (inactive) | > 100 µM (inactive) | 54.8 µM (inactive) | 8.85 µM (inactive) | > 100 µM (inactive) | 49.3 µM (inactive) | 63.5 µM (inactive) | > 100 µM (inactive) | > 100 µM (inactive) | – | > 100 µM (inactive) | > 100 µM (inactive) | > 100 µM (inactive) | > 100 µM (inactive) | 31.9 µM (inactive) | 55 µM (inactive) | > 100 µM (inactive) |
| CCOC(=O)c1cc(C2CCN(CC(C)CC)C2=S)c(C(=O)/C=C(/C)N)[nH]1 (stereo not drawn) | – | > 50 µM (inactive) | > 50 µM (inactive) | > 50 µM (inactive) | > 50 µM (inactive) | > 50 µM (inactive) | > 50 µM (inactive) | > 50 µM (inactive) | > 50 µM (inactive) | > 50 µM (inactive) | > 50 µM (inactive) | > 50 µM (inactive) | > 50 µM (inactive) | > 50 µM (inactive) | > 50 µM (inactive) | > 50 µM (inactive) | > 50 µM (inactive) | > 50 µM (inactive) | > 50 µM (inactive) | > 50 µM (inactive) |
| COC(=O)c1cc(C#N)[nH]c1-c1ccsc1 | > 100 µM (inactive) | 58.7 µM (inactive) | > 100 µM (inactive) | > 100 µM (inactive) | > 100 µM (inactive) | 10 µM (inactive) | 8.63 µM (inactive) | > 100 µM (inactive) | 22.5 µM (inactive) | 72.4 µM (inactive) | > 100 µM (inactive) | > 100 µM (inactive) | > 100 µM (inactive) | > 100 µM (inactive) | – | > 100 µM (inactive) | > 100 µM (inactive) | 74.8 µM (inactive) | > 100 µM (inactive) | > 100 µM (inactive) |
